Source: patent US20120172384A1, “HETEROCYCLYLAMINOPYRIMIDINES AS KINASE INHIBITORS” (priority 2009, published 2012)
pIC50: −log10 of the molar value.

These molecules were tested against T1, JAK3 (Homo sapiens, UniProt P52333) (assay: JAK3 kinobeads assay). Details: cell lysate, dot blot with JAK3 specific antibody.
T1 construct: endogenous in cells
T1 sequence (P52333 1-1124): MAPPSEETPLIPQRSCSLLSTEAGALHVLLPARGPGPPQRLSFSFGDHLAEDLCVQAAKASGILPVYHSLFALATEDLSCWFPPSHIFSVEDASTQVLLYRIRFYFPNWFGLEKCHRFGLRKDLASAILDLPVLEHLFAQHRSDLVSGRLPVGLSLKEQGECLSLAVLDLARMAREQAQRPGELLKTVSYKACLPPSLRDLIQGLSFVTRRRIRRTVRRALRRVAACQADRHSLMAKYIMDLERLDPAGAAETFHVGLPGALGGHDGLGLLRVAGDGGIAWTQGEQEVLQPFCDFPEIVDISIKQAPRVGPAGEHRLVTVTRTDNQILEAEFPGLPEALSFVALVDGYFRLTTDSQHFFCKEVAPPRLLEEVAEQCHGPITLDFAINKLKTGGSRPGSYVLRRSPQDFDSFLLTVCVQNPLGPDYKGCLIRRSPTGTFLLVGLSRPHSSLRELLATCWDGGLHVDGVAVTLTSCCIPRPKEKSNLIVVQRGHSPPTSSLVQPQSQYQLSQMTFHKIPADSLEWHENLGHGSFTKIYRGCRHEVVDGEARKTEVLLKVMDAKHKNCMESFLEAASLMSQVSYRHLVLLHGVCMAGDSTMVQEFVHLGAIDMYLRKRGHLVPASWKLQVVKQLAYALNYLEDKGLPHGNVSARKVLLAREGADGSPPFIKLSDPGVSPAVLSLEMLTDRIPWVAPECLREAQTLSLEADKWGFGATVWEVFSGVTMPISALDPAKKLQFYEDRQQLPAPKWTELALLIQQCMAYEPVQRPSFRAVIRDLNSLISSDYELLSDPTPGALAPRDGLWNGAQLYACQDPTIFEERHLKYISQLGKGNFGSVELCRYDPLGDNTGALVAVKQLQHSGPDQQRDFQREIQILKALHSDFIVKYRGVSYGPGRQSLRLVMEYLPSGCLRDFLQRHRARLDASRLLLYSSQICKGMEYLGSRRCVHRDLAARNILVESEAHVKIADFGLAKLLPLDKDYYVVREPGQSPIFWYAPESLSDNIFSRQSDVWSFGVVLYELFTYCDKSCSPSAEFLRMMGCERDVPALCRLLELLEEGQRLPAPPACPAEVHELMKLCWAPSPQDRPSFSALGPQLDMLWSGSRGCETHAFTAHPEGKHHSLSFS
Type: binding
Experimental: (§1) The compounds of the present invention as described in the previous examples were tested in the ZAP-70 kinobeads assay as described (EP-A 1862802 and WO-A 2007/137867). Briefly, test compounds (at various concentrations) and the affinity matrix with the immobilized aminopyrido-pyrimidine ligand 24 are added to cell lysate aliquots and allowed to bind to the proteins in the lysate sample. After the incubation time the beads with captured proteins are separated from the lysate. Bound proteins are then eluted and the presence ZAP-70 is detected and quantified using a specific antibody in a dot blot procedure and the Odyssey infrared detection system.
Compounds were tested by the procedure described in Example 102 but using a JAK3 specific antibody (Cell Signaling Technology, Inc., Danvers, US, catalogue number 3775) instead of a ZAP70 antibody.

| Compound | pIC50 |
| --- | --- |
| Cn1ccc(Nc2ncc(Cl)c(Nc3ccccc3NS(=O)(=O)C3CC3)n2)n1 [Example 53, N-(2-((5-chloro-2-((1-methyl-1H-pyrazol-3-yl)amino)pyrimidin-4-yl)amino)phenyl)cyclopropanesulfonamide] | 6.00 to 7.00 |
| Cn1nc(Nc2ncc(Cl)c(Nc3ccccc3NS(C)(=O)=O)n2)cc1C(=O)O [Example 92, 3-((5-chloro-4-((2-(methylsulfonamido)phenyl)amino)pyrimidin-2-yl)amino)-1-methyl-1H-pyrazole-5-carboxylic acid] | ≥ 7.00 |
| CS(=O)(=O)Nc1ccccc1Nc1nc(Nc2cnn(CCCC#N)c2)ncc1Cl [Example 65, N-(2-((5-chloro-2-((1-(3-cyanopropyl)-1H-pyrazol-4-yl)amino)pyrimidin-4-yl)amino)phenyl)methanesulfonamide] | ≥ 7.00 |
| CCCn1ccc(Nc2ncc(Cl)c(Nc3cccc(F)c3NS(C)(=O)=O)n2)n1 [Example 79, N-(2-((5-chloro-2-((1-propyl-1H-pyrazol-3-yl)amino)pyrimidin-4-yl)amino)-6-fluorophenyl)methanesulfonamide] | 6.00 to 7.00 |
| Cc1cc(Nc2ncc(Cl)c(Nc3ccccc3NS(C)(=O)=O)n2)nn1CC(F)(F)F [Example 83, N-(2-((5-chloro-2-((5-methyl-1-(2,2,2-trifluoroethyl)-1H-pyrazol-3-yl)amino)pyrimidin-4-yl)amino)phenyl)methanesulfonamide] | 6.00 to 7.00 |
| CS(=O)(=O)Nc1ccccc1Nc1nc(Nc2cnn(CCCC#N)c2)ncc1F [Example 66, N-(2-((2-((1-(3-cyanopropyl)-1H-pyrazol-4-yl)amino)-5-fluoropyrimidin-4-yl)amino)phenyl)methanesulfonamide] | ≥ 7.00 |
| COc1ccc(Nc2nc(Nc3cc(C(C)(C)C)nn3C)ncc2Cl)c(NS(C)(=O)=O)c1 [Example 10, N-(2-(2-(3-tert-butyl-1-methyl-1H-pyrazol-5-ylamino)-5-chloropyrimidin-4-ylamino)-5-methoxyphenyl)methanesulfonamide] | 5.00 to 6.00 |
| CCS(=O)(=O)Nc1ccccc1Nc1nc(Nc2cc(C)n(C)n2)ncc1F [Example 61, N-(2-((2-((1,5-dimethyl-1H-pyrazol-3-yl)amino)-5-fluoropyrimidin-4-yl)amino)phenyl)ethanesulfonamide] | 5.00 to 6.00 |
| COc1nn(CC(F)F)cc1Nc1ncc(F)c(Nc2ccccc2NS(C)(=O)=O)n1 [Example 73, N-(2-((2-((1-(2,2-difluoroethyl)-3-methoxy-1H-pyrazol-4-yl)amino)-5-fluoropyrimidin-4-yl)amino)phenyl)methanesulfonamide] | 6.00 to 7.00 |
| Cc1cc(Nc2ncc(Br)c(Nc3ccccc3NS(C)(=O)=O)n2)nn1C [Example 51, N-(2-((5-bromo-2-((1,5-dimethyl-1H-pyrazol-3-yl)amino)pyrimidin-4-yl)amino)phenyl)methanesulfonamide] | ≥ 7.00 |
| Cn1nc(Nc2ncc(Cl)c(Nc3ccccc3NS(C)(=O)=O)n2)cc1C(=O)NCCO [Example 101, 3-((5-chloro-4-((2-(methylsulfonamido)phenyl)amino)pyrimidin-2-yl)amino)-N-(2-hydroxyethyl)-1-methyl-1H-pyrazole-5-carboxamide] | ≥ 7.00 |
| Cn1cc(Nc2ncc(Cl)c(Nc3cccc(F)c3NS(C)(=O)=O)n2)cn1 [Example 89, N-(2-((5-chloro-2-((1-methyl-1H-pyrazol-4-yl)amino)pyrimidin-4-yl)amino)-6-fluorophenyl)methanesulfonamide] | ≥ 7.00 |
| CCS(=O)(=O)Nc1ccccc1Nc1nc(Nc2ccn(C)n2)ncc1Cl [Example 56, N-(2-((5-chloro-2-((1-methyl-1H-pyrazol-3-yl)amino)pyrimidin-4-yl)amino)phenyl)ethanesulfonamide] | 6.00 to 7.00 |
| COc1ccc(Nc2nc(Nc3cc(C4CC4)nn3C)ncc2Cl)c(NS(C)(=O)=O)c1 [Example 9, N-(2-(5-chloro-2-(3-cyclopropyl-1-methyl-1H-pyrazol-5-ylamino)pyrimidin-4-ylamino)-5-methoxyphenyl)methanesulfonamide] | 6.00 to 7.00 |

Each molecule was assayed against T2, ZAP-70 (Homo sapiens, UniProt P43403) (assay: ZAP-70 kinobeads assay). Details: cell lysate, dot blot with ZAP-70 antibody.
T2 construct: endogenous in cells
T2 sequence (P43403 1-619): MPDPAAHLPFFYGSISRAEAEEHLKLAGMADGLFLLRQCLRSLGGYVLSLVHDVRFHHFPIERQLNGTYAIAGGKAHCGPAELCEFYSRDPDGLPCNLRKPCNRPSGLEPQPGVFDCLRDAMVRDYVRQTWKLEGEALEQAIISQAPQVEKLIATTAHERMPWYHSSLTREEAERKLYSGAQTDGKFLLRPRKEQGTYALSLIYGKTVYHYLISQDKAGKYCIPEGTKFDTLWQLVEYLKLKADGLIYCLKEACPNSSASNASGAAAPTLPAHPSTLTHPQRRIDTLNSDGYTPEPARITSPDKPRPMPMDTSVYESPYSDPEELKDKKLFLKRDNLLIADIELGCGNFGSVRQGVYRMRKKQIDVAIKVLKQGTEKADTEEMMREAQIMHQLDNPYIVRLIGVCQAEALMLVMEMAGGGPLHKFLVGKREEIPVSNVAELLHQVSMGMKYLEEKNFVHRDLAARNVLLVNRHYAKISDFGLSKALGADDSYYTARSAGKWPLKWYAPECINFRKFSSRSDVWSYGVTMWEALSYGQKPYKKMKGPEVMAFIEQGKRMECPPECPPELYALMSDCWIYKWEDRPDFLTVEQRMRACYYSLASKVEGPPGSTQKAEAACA
Type: binding
Experimental: as §1

| Compound | pIC50 |
| --- | --- |
| COc1ccc(Nc2nc(Nc3ccnn3CC3CC3)ncc2Cl)c(NS(C)(=O)=O)c1 [Example 60, N-(2-((5-chloro-2-((1-(cyclopropylmethyl)-1H-pyrazol-5-yl)amino)pyrimidin-4-yl)amino)-5-methoxyphenyl)methanesulfonamide] | 6.00 to 7.00 |
| CCCCn1nccc1Nc1ncc(Cl)c(Nc2ccc(OC)cc2NS(C)(=O)=O)n1 [Example 87, N-(2-((2-((1-butyl-1H-pyrazol-5-yl)amino)-5-chloropyrimidin-4-yl)amino)-5-methoxyphenyl)methanesulfonamide] | 6.00 to 7.00 |
| CCCCn1nc(C)cc1Nc1ncc(Cl)c(Nc2ccc(OC)cc2NS(C)(=O)=O)n1 [Example 86, N-(2-((2-((1-butyl-3-methyl-1H-pyrazol-5-yl)amino)-5-chloropyrimidin-4-yl)amino)-5-methoxyphenyl)methanesulfonamide] | ≥ 7.00 |
| COc1ccc(Nc2nc(Nc3ccnn3CC(C)C)ncc2Cl)c(NS(C)(=O)=O)c1 [Example 98, N-(2-((5-chloro-2-((1-isobutyl-1H-pyrazol-5-yl)amino)pyrimidin-4-yl)amino)-5-methoxyphenyl)methanesulfonamide] | 5.00 to 6.00 |
| COc1ccc(Nc2nc(Nc3ccnn3C(C)C)ncc2Cl)c(NS(C)(=O)=O)c1 [Example 68, N-(2-((5-chloro-2-((1-isopropyl-1H-pyrazol-5-yl)amino)pyrimidin-4-yl)amino)-5-methoxyphenyl)methanesulfonamide] | 6.00 to 7.00 |
| CCc1nn(C)c(Nc2ncc(Cl)c(Nc3ccc(OC)cc3NS(C)(=O)=O)n2)c1C [Example 15, N-(2-(5-chloro-2-(3-ethyl-1,4-dimethyl-1H-pyrazol-5-ylamino)pyrimidin-4-ylamino)-5-methoxyphenyl)methanesulfonamide] | 5.00 to 6.00 |
| COc1ccc(Nc2nc(Nc3c(C)cnn3C)ncc2Cl)c(NS(C)(=O)=O)c1 [Example 14, N-(2-(5-chloro-2-(1,4-dimethyl-1H-pyrazol-5-ylamino)pyrimidin-4-ylamino)-5-methoxyphenyl)methanesulfonamide] | 5.00 to 6.00 |
| CCCn1nccc1Nc1ncc(Cl)c(Nc2ccc(OC)cc2NS(C)(=O)=O)n1 [Example 76, N-(2-((5-chloro-2-((1-propyl-1H-pyrazol-5-yl)amino)pyrimidin-4-yl)amino)-5-methoxyphenyl)methanesulfonamide] | 6.00 to 7.00 |
| COc1ccc(Nc2nc(Nc3cc(C)nn3CC(C)C)ncc2Cl)c(NS(C)(=O)=O)c1 [Example 95, N-(2-((5-chloro-2-((1-isobutyl-3-methyl-1H-pyrazol-5-yl)amino)pyrimidin-4-yl)amino)-5-methoxyphenyl)methanesulfonamide] | 6.00 to 7.00 |
| CCC(C)n1nc(C)cc1Nc1ncc(Cl)c(Nc2ccc(OC)cc2NS(C)(=O)=O)n1 (stereo not drawn) [Example 27, N-(2-(2-(1-sec-butyl-3-methyl-1H-pyrazol-5-ylamino)-5-chloropyrimidin-4-ylamino)-5-methoxyphenyl)methanesulfonamide] | 6.00 to 7.00 |
